System: HIV-1
Experiment: HIV-1 single-round infectious luciferase reporter virus (pseudotype) assay in HeLa CD4 CCR5 cells
Assay type: cell-based
Settings: Human immunodeficiency virus 1, HeLa-CD4/CCR5, read-out: EC50 Group from TABLE 1, HeLa CD4 CCR5 cells, single-round infectious luciferase reporter virus
Procedure, shortened: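 Reporter pseudovirus produced in 293 cells infected HeLa cells expressing CD4/CCR5 at MOI ~0.01, with compound present at <10 μM final. Infection was quantified as luciferase luminescence after 72 h.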

SMILES | EC50
COCc1ncn(-c2ncc(OC)c3c(C(=O)C(=O)N4CCN(C(=O)c5ccccc5)CC4)c[nH]c23)n1 [Example 323] | < 1000 nM
COc1cnc(-n2ccc(-c3cccc(C(=O)O)c3)n2)c2[nH]cc(C(=O)C(=O)N3CCN(C(=O)c4ccccc4)CC3)c12 [Example 294, 1-benzoyl-4-[(4-methoxy-7-(3-(3-hydroxylcarbonylphenyl)-pyrazol-1-yl)-6-azaindol-3-yl)-oxoacetyl]piperazine] | < 1000 nM
COc1cnc(-c2ccc(C(=O)O)o2)c2[nH]cc(C(=O)C(=O)N3CCN(C(=O)c4ccccc4)CC3)c12 [Example 87, 1-benzoyl-4-[(4-methoxy-7-(2-hydroxycarbonyl-furan-5-yl)-6-azaindol-3-yl)-oxoacetyl]piperazine] | < 1000 nM
COc1cnc(-c2ncccn2)c2[nH]cc(C(=O)C(=O)N3CCN(C(=O)c4ccccc4)CC3)c12 [Example 49, 1-benzoyl-4-[(4-methoxy-7-(pdin-2-yl)-6-azaindol-3-yl)-oxoacetyl]piperazine] | < 1000 nM
COc1cnc(-c2ccoc2)c2[nH]cc(C(=O)C(=O)N3CCN(C(=O)c4ccccc4)CC3)c12 [Example 81, 1-benzoyl-4-[(4-methoxy-7-(furan-3-yl)-6-azaindol-3-yl)-oxoacetyl]piperazine] | < 1000 nM
COc1cnc(-c2cnc(CC(C)C)s2)c2[nH]cc(C(=O)C(=O)N3CCN(C(=O)c4ccccc4)CC3)c12 [Example 90, 1-benzoyl-4-[(4-methoxy-7-(2-isobutyl-thiazol-5-yl)-6-azaindol-3-yl)-oxoacetyl]piperazine] | < 1000 nM
COc1cnc(-n2ccc(S(=O)(=O)c3ccc(C)cc3)n2)c2[nH]cc(C(=O)C(=O)N3CCN(C(=O)c4ccccc4)CC3)c12 [Example 286, 1-benzoyl-4-[(4-methoxy-7-(3-(toluene-4-sulfonyl)-pyrazol-1-yl)-6-azaindol-3-yl)-oxoacetyl]piperazine] | < 1000 nM
COc1cnc(-n2ccc(C(O)C(C)C)n2)c2[nH]cc(C(=O)C(=O)N3CCN(C(=O)c4ccccc4)CC3)c12 (stereo not shown) [Example 284, 1-benzoyl-4-[(4-methoxy-7-(3-(1-hydroxy-2-methyl-propyl)-pyrazol-1-yl)-6-azaindol-3-yl)-oxoacetyl]piperazine] | < 1000 nM
COc1cnc(-c2cncc(N)n2)c2[nH]cc(C(=O)C(=O)N3CCN(C(=O)c4ccccc4)CC3)c12 [Example 46, 1-benzoyl-4-[(4-methoxy-7-(2-amino-pyrazin-6-yl)-6-azaindol-3-yl)-oxoacetyl]piperazine] | < 1000 nM
CCCCCc1ccn(-c2ncc(OC)c3c(C(=O)C(=O)N4CCN(C(=O)c5ccccc5)CC4)c[nH]c23)n1 [Example 250, 1-benzoyl-4-[(4-methoxy-7-(3-n-pentyl-pyrazol-1-yl)-6-azaindol-3-yl)-oxoacetyl]piperazine] | < 1000 nM
O=C(C(=O)N1CCN(C(=O)c2ccccc2)CC1)c1c[nH]c2c(-c3cccnn3)ncc(F)c12 [Example 154] | < 1000 nM
CCOC(=O)c1cc(C)nn1-c1ncc(F)c2c(C(=O)C(=O)N3CCN(C(=O)c4ccccc4)CC3)c[nH]c12 [Example 311] | < 1000 nM
COc1cnc(-c2cscn2)c2[nH]cc(C(=O)C(=O)N3CCN(C(=O)c4ccccn4)CC3)c12 [Example 173, 1-picolinoyl-4-[(4-methoxy-7-(thiazol-4-yl)-6-azaindol-3-yl)-oxoacetyl]piperazine] | < 1000 nM
COc1ccc(-c2ncc(OC)c3c(C(=O)C(=O)N4CCN(C(=O)c5ccccc5)CC4)c[nH]c23)cn1 [Example 69, 1-benzoyl-4-[(4-methoxy-7-(6-methoxy-pyridin-3-yl)-6-azaindol-3-yl)-oxoacetyl]piperazine] | < 1000 nM
COc1cnc(-c2cnccn2)c2[nH]cc(C(=O)C(=O)N3CCN(C(=O)c4ncccc4C)CC3)c12 [Example 200] | < 1000 nM
COc1cnc(-n2nccc2N)c2[nH]cc(C(=O)C(=O)N3CCN(C(=O)c4ccccc4)CC3)c12 [Example 252, 1-benzoyl-4-[(4-methoxy-7-(5-amino-pyrazol-1-yl)-6-azaindol-3-yl)-oxoacetyl]piperazine] | < 1000 nM
COc1cnc(-n2cnc(CCC(=O)O)c2)c2[nH]cc(C(=O)C(=O)N3CCN(C(=O)c4ccccc4)CC3)c12 [Example 329] | < 1000 nM
C[C@@H]1CN(C(=O)c2ccccc2)CCN1C(=O)C(=O)c1c[nH]c2c(-c3ccc(O)nc3)nccc12 [Example 122] | < 1000 nM
COc1cnc(-n2ncnc2C)c2[nH]cc(C(=O)C(=O)N3CCN(C(=O)c4ccccc4)CC3)c12 [Example 319] | < 1000 nM
O=C(C(=O)N1CCN(C(=O)c2ccccc2)CC1)c1c[nH]c2c(-c3ccncn3)ncc(F)c12 [Example 125] | < 1000 nM
COc1cnc(-c2cnc(C)nc2)c2[nH]cc(C(=O)C(=O)N3CCN(C(=O)c4ccccc4)CC3)c12 [Example 171, 1-benzoyl-4-[(4-methoxy-7-(2-methyl-pyrimidin-5-yl)-6-azaindol-3-yl)-oxoacetyl]piperazine] | < 1000 nM
C[C@H]1CN(C(=O)c2ccccn2)CCN1C(=O)C(=O)c1c[nH]c2c(-c3cncs3)nccc12 [Example 110, (S)-1-picolinoyl-3-methyl-4-[(7-(thiazol-5-yl)-6-azaindol-3-yl)-oxoacetyl]piperazine] | < 1000 nM
COc1cnc(-n2ccc(CCCC#N)n2)c2[nH]cc(C(=O)C(=O)N3CCN(C(=O)c4ccccc4)CC3)c12 [Example 279, 1-benzoyl-4-[(4-methoxy-7-(3-(3-cyano-propan-1-yl)-pyrazol-1-yl)-6-azaindol-3-yl)-oxoacetyl]piperazine] | < 1000 nM
O=C(O)c1ccc(-c2nccc3c(C(=O)C(=O)N4CCN(C(=O)c5ccccc5)CC4)c[nH]c23)cc1 [Example 4, 1-benzoyl-4-[(7-(4-carboxy-phenyl)-6-azaindol-3-yl)-oxoacetyl]piperazine] | < 1000 nM
COc1cnc(-c2nccs2)c2[nH]cc(C(=O)C(=O)N3CCN(C(=O)c4ccccn4)CC3)c12 [Example 50] | < 1000 nM
COc1cnc(-n2ccc(-c3ccc(C)nc3)n2)c2[nH]cc(C(=O)C(=O)N3CCN(C(=O)c4ccccc4)CC3)c12 [Example 264, 1-benzoyl-4-[(4-methoxy-7-(3-(2-methylpyridin-5-yl)pyrazol-1-yl)-6-azaindol-3-yl)-oxoacetyl]piperazine] | < 1000 nM
C[C@@H]1CN(C(=O)c2ccccc2)CCN1C(=O)C(=O)c1c[nH]c2c(-c3cnc(O)cn3)nccc12 [Example 157] | < 1000 nM

Same assay, conditions: Human immunodeficiency virus 1, HeLa-CD4/CCR5, read-out: EC50 Group from Table 1, Table 2-1; HeLa CD4 CCR5 cells, single-round luciferase reporter virus

SMILES | EC50
COc1cnc(-n2cnc(NCc3cccnc3)n2)c2[nH]cc(C(=O)C(=O)N3CCN(C(=O)c4ccccc4)[C@H](C)C3)c12 [Example 261, (R)-1-benzoyl-2-methyl-4-[(4-methoxy-7-(3-(3-pyridinemethylamino)-1,2,4-triazol-1-yl)-6-azaindol-3-yl)-oxoacetyl]piperazine] | < 1000 nM
COc1cnc(-n2nccc2N)c2[nH]cc(C(=O)C(=O)N3CCN(C(=O)c4ccccc4)[C@H](C)C3)c12 [Example 254, (R)-1-benzoyl-2-methyl-4-[(4-methoxy-7-(5-amino-pyrazol-1-yl)-6-azaindol-3-yl)-oxoacetyl]piperazine] | < 1000 nM
COc1cnc(-n2ccc(-c3ccccc3)n2)c2[nH]cc(C(=O)C(=O)N3CCN(C(=O)c4ccccc4)[C@H](C)C3)c12 [Example 260, (R)-1-benzoyl-2-methyl-4-[(4-methoxy-7-(3-phenyl-pyrazol-1-yl)-6-azaindol-3-yl)-oxoacetyl]piperazine] | < 1000 nM
COCc1ccn(-c2ncc(OC)c3c(C(=O)C(=O)N4CCN(C(=O)c5ccccc5)[C@H](C)C4)c[nH]c23)n1 [Example 238, (R)-1-benzoyl-2-methyl-4-[(4-methoxy-7-(3-methoxymethyl-pyrazol-1-yl)-6-azaindol-3-yl)-oxoacetyl]piperazine] | < 1000 nM
COc1cnc(-n2nccc2C)c2[nH]cc(C(=O)C(=O)N3CCN(C(=O)c4ccccc4)[C@H](C)C3)c12 [Example 242, (R)-1-benzoyl-2-methyl-4-[(4-methoxy-7-(5-methyl-pyrazol-1-yl)-6-azaindol-3-yl)-oxoacetyl]piperazine] | < 1000 nM
COc1cnc(-n2ccc(C(F)(F)F)n2)c2[nH]cc(C(=O)C(=O)N3CCN(C(=O)c4ccccc4)[C@H](C)C3)c12 [Example 244, (R)-1-benzoyl-2-methyl-4-[(4-methoxy-7-(3-trifluoromethyl-pyrazol-1-yl)-6-azaindol-3-yl)-oxoacetyl]piperazine] | < 1000 nM
CCCc1ccn(-c2ncc(OC)c3c(C(=O)C(=O)N4CCN(C(=O)c5ccccc5)[C@H](C)C4)c[nH]c23)n1 [Example 231, (R)-1-benzoyl-2-methyl-4-[(4-methoxy-7-(3-propyl-pyrazol-1-yl)-6-azaindol-3-yl)-oxoacetyl]piperazine] | < 1000 nM

Same assay, conditions: Human immunodeficiency virus 1, HeLa-CD4/CCR5, read-out: EC50 Group from Table 1, Table 4; HeLa CD4 CCR5 cells, single-round luciferase reporter virus

SMILES | EC50
C[C@@H]1CN(C(=O)c2ccccc2)CCN1C(=O)C(=O)c1c[nH]c2c(C(=O)NCc3ccc(C(F)(F)F)cc3)ccnc12 [Example 135, (R)-1-benzoyl-3-methyl-4-[(7-(4-trifluoromethylbenzylarmino)carbonyl-4-azaindol-3-yl)-oxoacetyl]piperazine] | < 1000 nM
COc1ccc(-c2ccnc3c(C(=O)C(=O)N4CCN(C(=O)c5ccccc5)C[C@@H]4C)c[nH]c23)cc1 [Example 66, 1-benzoyl-3-(S)-methyl-4-[(7-(4-methoxy)-4-azaindol-3-yl)-oxoacetyl]piperazine] | < 1000 nM
C[C@@H]1CN(C(=O)c2ccccc2)CCN1C(=O)C(=O)c1c[nH]c2c(-c3ncc[nH]3)cc(Cl)nc12 [Example 60, 1-benzoyl-3-(R)-methyl-4-[(5-chloro-7-(imidazol-2-yl)-4-azaindol-3-yl)-oxoacetyl]piperazine] | < 1000 nM
